Values joined by “and” are separate entries in the source; they are usually repeats but may differ in a detail not shown here. Equal entries are not always repeated. * marks the point of attachment. MCA = fluorescent 7-methoxycoumarin-3-carboxylic acid residue, COc1ccc2cc(C(=O)*)c(=O)oc2c1; Dpn = quencher lysine-dinitrophenol residue
Columns and labels:
MMP-2 = molecular target: T1, MMP-2 (Homo sapiens, UniProt P08253); assay: MMP-2 cleavage of FRET-based N-terminal 8 amino acid peptides; format: biochemical; details: for amount of peptide cleaved by MMP-2: after 4 hours, n=4; for initial cleavage rate by MMP-2: calculated 60 minutes after addition of MMP-2, n=4
T1 construct: purchased R&D Systems
T1 sequence (P08253 110-660): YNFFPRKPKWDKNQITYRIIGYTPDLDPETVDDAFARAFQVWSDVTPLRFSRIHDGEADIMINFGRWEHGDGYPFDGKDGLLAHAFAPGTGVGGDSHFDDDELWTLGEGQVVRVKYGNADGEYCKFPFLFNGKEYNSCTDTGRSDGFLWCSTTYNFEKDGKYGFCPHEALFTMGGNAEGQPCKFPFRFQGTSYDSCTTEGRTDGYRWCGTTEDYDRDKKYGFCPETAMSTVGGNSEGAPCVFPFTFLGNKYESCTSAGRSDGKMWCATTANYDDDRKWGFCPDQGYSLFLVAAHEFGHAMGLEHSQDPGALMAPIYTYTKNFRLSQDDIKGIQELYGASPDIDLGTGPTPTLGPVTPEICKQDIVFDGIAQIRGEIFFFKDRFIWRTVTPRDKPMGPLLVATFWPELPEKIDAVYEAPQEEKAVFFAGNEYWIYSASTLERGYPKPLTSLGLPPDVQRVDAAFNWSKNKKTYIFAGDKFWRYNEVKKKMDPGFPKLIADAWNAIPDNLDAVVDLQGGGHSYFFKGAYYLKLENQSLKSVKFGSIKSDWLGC
Experimental: All peptides were synthesized with a fluorescent 7-methoxycoumarin-3-carboxylic acid (MCA) residue at the N-terminus and a quencher lysine-dinitrophenol (Dpn) residue at the C-terminus. […] Enzymatic cleavage of these peptides separated MCA from Dpn, resulting in an increased fluorescence. Peptides (10 μM) were then incubated with activated MMP-2 (Table 1), leukocyte elastase (Table 2), or cathepsin G (Table 3) (1.4 nM) in TNCB buffer (50 mM Tris, pH 7.5, with 10 mM calcium chloride, 150 mM sodium chloride, and 0.05% BRIJ 35) or phosphate-buffered saline (PBS) at 21° C. Fluorescence was measured at 340 nm excitation and 405 nm emission wavelengths at different time points with a Victor Wallace II plate reader.
Human recombinant MMP-2 (R&D Systems) was activated for 1 hour with 4-aminophenylmercuric acetate (APMA, 1 mM) at 37° C. 4 μg of Sumo-SSDF-1-RAD or Sumo-SSDF-1(S4V)-RAD was incubated for 1 hour to 48 hours at 21° C. with 50 ng of activated MMP-2 in TCNB buffer (50 mM Tris, pH 7.5, 10 mM CaCl2, 150 mM NaCl, 0.05% Brij-35). Sample loading buffer (Invitrogen) and 2-mercaptoethanol (0.5 M, final concentration) were added, and samples were boiled for 5 minutes and run on a 10% Bis-Tris gel. Proteins used for this experiment were obtained after cation-exchange chromatography, but were neither cleaved by Sumo-protease nor purified by RPC-HPLC.

[1] = system: Jurkat T-lymphocytic cells; assay: Jurkat T-lymphocyte migration (chemotaxis) assay; format: cell-based; details: for EC50 / Jurkat Chemotaxis EC50: Jurkat cells, 3 hours migration; for activity in Jurkat cell migration assay / activity of C-terminal variant relative to SDF-1 and SSDF-1: result in words; for activity of C-terminal variant relative to SDF-1 and SSDF-1: Jurkat migration, CXCR4 cAMP and CXCR β-arrestin assays
Experimental: Jurkat cells were labeled with Calcein-AM (1 μM) for 60 minutes at 37° C., washed twice and resuspended in RPMI without phenol red to a final density of 4,000,000 cells/ml. […] Cells were allowed to migrate for 3 hours, and cells in lower wells were washed once with PBS. Fluorescence in lower wells was measured at 485 nm excitation and 535 nm emission wavelengths with a Victor Wallace II plate reader. A standard curve was constructed for each experiment to normalize fluorescence to the number of cells.

CXCR4 [2] = molecular target: T2, CXCR4 (Homo sapiens, UniProt P61073); assay: CXCR4 cAMP receptor activation assay (CHO-K1 cells expressing CXCR4); format: cell-based; set-up: host or cells: CHO-K1; details: decrease in cAMP by Gαi activation, forskolin at EC80
Experimental: For the CXCR4 cAMP assay, CHO-K1 cells stably expressing the CXCR4 receptor (DiscoveRx, Fremont, Calif.) were seeded at a density of 10,000 cells/well in a 384-well plate and were allowed to recover overnight. A decrease in cAMP by CXCR4-induced Gαi activation was determined using the DiscoveRx HitHunter cAMP XS+assay following the manufacturer's protocol. […] Chemiluminescence was read with a PerkinElmer ViewLux instrument.

CXCR7 = CXCR7 (Homo sapiens, UniProt P25106); assay: CXCR7 β-arrestin recruitment assay (PathHunter); format: cell-based
Experimental: (§1) PathHunter β-arrestin assays were performed following the instructions of the manufacturer (DiscoveRx). Briefly, PathHunter cell lines stably expressing both a β-arrestin-Enzyme Acceptor of β-galactosidase fusion and one of the chemokine receptors fused with the ProLink donor peptide of […] were employed. Upon CXCR stimulation, β-arrestin is recruited to the receptor for desensitization, bringing the two fragments (the Enzyme Acceptor and the ProLink) of β-galactosidase together. This generates an active β-galactosidase enzyme that can convert a substrate to a chemiluminescent product. Cells were seeded at a density of 5000 cells/well in a 384-well plate and were allowed to adhere overnight. […] After incubation, chemiluminescent signal was generated through addition of 12.5 μl (50% v/v) of PathHunter Detection reagent cocktail (DiscoveRx) followed by a 1-hour incubation at room temperature. Microplates were read with a PerkinElmer ViewLux instrument.

[3] = system: ischemic hindlimb blood flow; assay: Hindlimb ischemia model, laser Doppler blood flow; format: in vivo, C57BL/6 mice; details: without nanofibers
Experimental: All animal protocols were approved by the institutional IACUC and performed in an AAALAC certified facility. Studies were performed blinded and randomized. Hindlimb ischemia was produced in male C57BL/6 mice (305 mice total), 8 to 12 weeks old (Jackson Laboratories and Charles River Laboratories). Mice were anesthetized with isoflurane (2-3% in 100% oxygen) and buprenorphin (0.05 mg/kg). Femoral artery was ligated and excised below the inguinal ligament and above the bifurcation of the popliteal artery. Protein and self-assembling peptide nanofibers were injected in the lower hindlimb after excision of the artery. Peptides were dissolved in isotonic sucrose (10%). Post-operative analgesia was provided with buprenorphin (0.05 mg/kg every 6 to 12 hours for 72 hours). The surgeon was blinded to the treatment groups in all studies performed. The first study included 35 animals total (5 animals per group), which received an intramuscular injection in the lower hindlimb with biotin-labeled nanofibers (biotin-RAD, 0.01% in 1% nanofibers hydrogel). Tissues were harvested at seven different time points and nanofibers were stained with Alexa fluor-labeled streptavidin. The second study included 40 animals (10 per group) with four groups: control without injection, nanofibers only, nanofibers+100 nM SSDF-1-RAD, and nanofibers+100 nM SSDF-1(S4V)-RAD. Laser Doppler blood flow measurements were performed with a Moor LDI2-IR (Moor Instruments) 2, 4, and 6 weeks after surgery. At each time point, five measurements (on average) per animal were made, and blood flow in the ischemic limb was normalized to blood flow in normal limb. The third study included 50 animals with four different dosages of SSDF-1(S4V)-RAD; all groups contained nanofibers. All laser Doppler measurements and histology quantifications were made by an operator blinded to the treatment groups.

CXCR4 [4] = molecular target: T2, CXCR4; assay: CXCR4 β-arrestin recruitment assay (PathHunter); format: cell-based
Experimental: as §1

[5] = fourth study, 1 mg/kg daily IM for first 7 days
[6] = separate confirming study, same doses and schedule

T2 sequence (P61073 whole entry): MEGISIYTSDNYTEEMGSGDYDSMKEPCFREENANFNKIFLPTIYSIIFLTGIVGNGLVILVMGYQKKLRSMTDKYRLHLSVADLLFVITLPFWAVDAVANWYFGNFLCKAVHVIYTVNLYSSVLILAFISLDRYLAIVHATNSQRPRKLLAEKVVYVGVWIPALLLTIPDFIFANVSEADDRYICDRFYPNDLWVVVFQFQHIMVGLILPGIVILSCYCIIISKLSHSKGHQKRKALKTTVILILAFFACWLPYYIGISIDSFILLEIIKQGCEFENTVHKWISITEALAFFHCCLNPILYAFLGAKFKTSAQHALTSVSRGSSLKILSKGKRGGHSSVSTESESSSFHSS
Chain of CXCR7 (P25106 whole entry, the tested form may be a part): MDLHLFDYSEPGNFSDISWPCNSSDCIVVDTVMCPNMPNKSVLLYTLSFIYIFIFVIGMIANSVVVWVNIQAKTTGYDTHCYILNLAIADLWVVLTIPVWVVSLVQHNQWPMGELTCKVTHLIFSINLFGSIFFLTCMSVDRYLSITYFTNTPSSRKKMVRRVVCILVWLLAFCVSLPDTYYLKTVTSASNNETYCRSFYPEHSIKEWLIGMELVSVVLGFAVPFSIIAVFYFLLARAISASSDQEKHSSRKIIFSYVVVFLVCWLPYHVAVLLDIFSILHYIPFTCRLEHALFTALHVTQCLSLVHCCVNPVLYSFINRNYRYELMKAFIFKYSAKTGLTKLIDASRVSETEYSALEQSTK

| Substance | EC50 [1] | EC50 (CXCR7) [nM] | Jurkat Chemotaxis EC50 [1] | activity in Jurkat cell migration assay [1] | further results |
| --- | --- | --- | --- | --- | --- |
| SDF-1(S4V)-N-terminal peptide: First 8 amino acids of SDF-1(S4V) (SEQ ID NO:91) with MCA at the N-terminus and quencher Dpn at the C-terminus ({MCA}-KPVVLSYR-Dpn) |  |  |  |  | amount of peptide cleaved by MMP-2 (MMP-2): 1 ± 3 pmol; initial cleavage rate by MMP-2 (MMP-2): 0.1±0.1×10^−10 M s^−1 |
| SSDF-1(S4V)-RADI: Fusion protein of SSDF-1(S4V) and RAD16-I sequence, six glycine linker (SEQ ID NO:75) | 18 nM |  |  |  |  |
| SSDF-1 (S6G): SDF(S6G) (SEQ ID NO:62) with N-terminal serine | 11 nM | 25 |  |  | EC50 (CXCR4 [2]): 8.5 nM |
| SSDF-1(S4V)γ: SDF-1γ version of SSDF-1(S4V) | 47 nM |  |  |  |  |
| SSDF-1(S4V)(−68K): SSDF-1(S4V) lacking the C-terminal lysine | 10 nM |  |  |  |  |
| SSDF-1 (L5V): SDF(L5V) (SEQ ID NO:60) with N-terminal serine | 36 nM | 21 |  |  | EC50 (CXCR4 [2]): 33 nM |
| KPVSLSYR ({MCA}-KPVSLSYR-Dpn; listed as Homo sapiens) [SDF-1-N-terminal peptide, reference compound] |  |  |  |  | amount of peptide cleaved by MMP-2 (MMP-2): 205 ± 18 pmol; initial cleavage rate by MMP-2 (MMP-2): 2.0±0.1×10^−10 M s^−1 |
| SSDF-1 (V3H): SDF(V3H) (SEQ ID NO:54) with N-terminal serine | 6.7 nM | 92 |  |  | EC50 (CXCR4 [2]): 1 nM |
| SSDF-1 (L5P): SDF-1 with Leu→Pro at position 5 (SEQ ID NO:66) and N-terminal serine | 120 nM | 225 |  |  | CXCR4 (cAMP) EC50 (CXCR4 [2]): Inactive |
| SSDF-1 (V3C): SDF(V3C) (SEQ ID NO:55) with N-terminal serine | 15 nM | 14 |  |  | EC50 (CXCR4 [2]): 0.6 nM |
| SSDF-1 (V3D): SDF-1 with Val→Asp at position 3 and N-terminal serine |  |  | Inactive | inactive |  |
| SSDF-1 (−68K): SDF-1 lacking the C-terminal lysine, with N-terminal serine | 2.2 nM |  |  |  | EC50 ([1]; listed as SSDF-1(−68K)): 1.3 nM; activity of C-terminal variant relative to SDF-1 and SSDF-1 [1]: unchanged |
| SSDF-1: SDF-1 with a serine residue added at the N-terminus | 1.6 nM |  |  |  | blood flow differences between groups [3, 5]: No significant differences in blood flow; blood flow differences between groups [3, 6]: did not show significant differences between groups |
| SSDF-1 (L5H): SDF-1 with Leu→His at position 5 and N-terminal serine |  |  | Inactive | inactive |  |
| SSDF-1 (S4V): SDF-1(S4V) (SEQ ID NO:65) with a serine residue added at the N-terminus | 5.4 nM | 37 |  | highest potency | EC50 (CXCR4 [2]): 20 nM; EC50 (CXCR4 [4]): 28 nM; average blood flow (ratio of ischemic to control limb) ([3]; four weeks, 4 administrations (d0, d1, d3, d5) of 1 mg/kg): 27.1±2.5%; blood flow differences between groups [3, 5]: No significant differences in blood flow; blood flow differences between groups [3, 6]: did not show significant differences between groups; blood flow differences between groups ([3]; third study, 0.1, 0.3, 1 and 3 mg/kg at d0, d1, d3, d5): No significant differences in blood flow |
| SSDF-1 (S6C): SDF(S6C) (SEQ ID NO:61) with N-terminal serine | 23 nM | 29 |  |  | EC50 (CXCR4 [2]): 12 nM |
| SSDF-1 (V3G): SDF-1 with Val→Gly at position 3 and N-terminal serine |  |  | Inactive | inactive |  |
| SDF-1: Unmutated SDF-1α, 68 amino acids, SEQ ID NO:52 [reference compound] | 1.5 nM and 1.8 nM |  |  |  |  |
| SSDF-1 (L5T): SDF(L5T) (SEQ ID NO:56) with N-terminal serine | 20 nM | 8.7 |  |  | EC50 (CXCR4 [2]): 3.6 nM |
| SSDF-1 (V3P): SDF-1 with Val→Pro at position 3 and N-terminal serine |  |  | Inactive | inactive |  |
| SSDF-1 (L5K): SDF-1 with Leu→Lys at position 5 and N-terminal serine |  |  | Inactive | inactive |  |
| SSDF-1 (L5W): SDF-1 with Leu→Trp at position 5 and N-terminal serine |  |  | Inactive | inactive |  |
| SSDF-1 (L5E): SDF-1 with Leu→Glu at position 5 and N-terminal serine |  |  | Inactive | inactive |  |
| SSDF-1 (L5D): SDF-1 with Leu→Asp at position 5 and N-terminal serine |  |  | Inactive | inactive |  |
| SSDF-1 (+69S): SSDF-1 with an amino acid residue (serine) added to the C-terminal end | 12 nM |  |  |  | EC50 ([1]; listed as SSDF-1(+69S)): 2 nM; activity of C-terminal variant relative to SDF-1 and SSDF-1 [1]: retains significant activity |

Source: US10456451B2, “Protease-resistant mutants of stromal cell derived factor-1 in the repair of tissue damage” (Mesoblast International Sàrl, priority 2010, dated 2019)
